Values of other authors as cited in patent US10448644B2, “Fungicide composition for natural fibers and natural fiber components” (Lisa Draexlmaier Gmbh, priority 2014, dated 2019).

Assays:
[1] = animal experiments
[2] = according to the German Federal Institute for Health Protection and Veterinary Medicine

## c1ccc2[nH]c(-c3cscn3)nc2c1 [thiabendazole]
[1]
  carcinogenic effect: found to have a carcinogenic effect
[2]
  toxicity: low
